Reference: patent publication US8722027B2, “Method for preparing broussonetia kazinoki extract” (Amorepacific Corporation, priority 2010, dated 2014)
Values after ≈ are worked out from the molar mass of the structure shown.

Tests used:
[1] = system: tyrosinase; assay: Tyrosinase inhibitory effect (method of Test Example 1-2); type: biochemical; conditions: 50 mg sample in 100 ml ethanol, diluted 10-fold; 50 μl sample solution; 37° C., 10 minutes; absorbance 490 nm
Experimental: 50 mg of a sample to be evaluated for tyrosinase inhibitory activity was dissolved in ethanol to make 100 ml of a solution. 10 ml of the solution was taken, and ethanol was added thereto to make 100 ml of a sample solution. 500 μl of a substrate solution, 450 μl of purified water and 50 μl of the sample solution are added to and mixed with 500 μl of buffer, and 50 μl of an enzyme (tyrosinase) solution is added to the mixture. The resulting mixture is allowed to react at 37° C. for 10 minutes, and then immediately allowed to stand on ice for 5 minutes, and the absorbance at 490 nm is measured. The tyrosinase inhibitory effect of the sample is evaluated based on the absorbance of the sample compared to the absorbance of a blank sample.

[2] = system: mushroom tyrosinase; assay: Inhibition of tyrosinase activity (L-tyrosine substrate); type: biochemical
Experimental: First, as test samples, arbutin and the composition of Preparation Example 6 were prepared at various concentrations, and an enzyme was added thereto in an amount corresponding to 10 units, after which 0.1M phosphate buffer was added thereto to a final volume of 100 μl. 100 μl of 0.03% L-tyrosine substrate solution was added thereto, and then immediately, the absorbance at 475 nm was measured. Then, the mixture was allowed to react at 37° C. for 10 minutes, after which it was placed on ice to stop the reaction, and the absorbance was measured again.

[3] = system: B16 melanoma cells; assay: Inhibition of melanin production (α-MSH stimulated); type: cell-based, mouse; conditions: 100 μg/ml, 1 μM α-MSH
Experimental: (§1) B16 melanoma cells from C57BL/6J (black, a/a) mouse melanoma were purchased from the Cell Line Bank. The cells were cultured in DMEM medium containing 10% fetal bovine serum (LONZA), 50 U/ml of penicillin and 50 μg/ml of […] streptomycin under the conditions of 37° C. and 10% CO2.
B16 melanoma cells were seeded in a 24-well plate at a density of 4×10^4 cells/well and cultured overnight so as to adhere well to the plate. Then, medium containing 1 μM α-MSH for promoting melanin production and each concentration of the test sample of Preparation Example 6 or arbutin was added to each well. The plate was incubated for 72 hours, and then 200 μl of the cell culture medium was taken and the absorbance at 405 nm was measured. Based on the measurement, the amount of melanin was calculated. The calculated amount of melanin was expressed as a percentage relative to the control (not treated with the test material), and the results are shown in Table 9 below.

[4] = system: B16 melanoma cells; assay: Cytotoxicity measurement (MTT assay); type: cell-based, mouse
Experimental: as §1
B16 melanoma cells were seeded in a 96-well plate at a density of 1×10^4 cells/well and cultured for 1 day. The medium was replaced with fresh medium containing each of arbutin and various concentration of the composition of Preparation Example 6, and the cells were cultured again for 24 hours. 50 μl of an MIT solution obtained by dissolving MIT in cell culture medium at a concentration of 2 mg/ml was added to each well, and medium was added to each well to a final volume of 200 μl, after which the cells were incubated for 3-4 hours. The medium was removed, and the produced formazan crystals were dissolved in 150 μl of DMSO, after which the absorbance of the formazan solution was measured at 540 nm. The measured absorbance was expressed as a percentage relative to the control (not treated with the test material) to evaluate whether the test sample has cytotoxicity.

[5] = target: T1, tyrosinase (Homo sapiens, UniProt P14679); conditions: compared to kojic acid; known; cited from earlier work
T1 sequence (P14679 19-529): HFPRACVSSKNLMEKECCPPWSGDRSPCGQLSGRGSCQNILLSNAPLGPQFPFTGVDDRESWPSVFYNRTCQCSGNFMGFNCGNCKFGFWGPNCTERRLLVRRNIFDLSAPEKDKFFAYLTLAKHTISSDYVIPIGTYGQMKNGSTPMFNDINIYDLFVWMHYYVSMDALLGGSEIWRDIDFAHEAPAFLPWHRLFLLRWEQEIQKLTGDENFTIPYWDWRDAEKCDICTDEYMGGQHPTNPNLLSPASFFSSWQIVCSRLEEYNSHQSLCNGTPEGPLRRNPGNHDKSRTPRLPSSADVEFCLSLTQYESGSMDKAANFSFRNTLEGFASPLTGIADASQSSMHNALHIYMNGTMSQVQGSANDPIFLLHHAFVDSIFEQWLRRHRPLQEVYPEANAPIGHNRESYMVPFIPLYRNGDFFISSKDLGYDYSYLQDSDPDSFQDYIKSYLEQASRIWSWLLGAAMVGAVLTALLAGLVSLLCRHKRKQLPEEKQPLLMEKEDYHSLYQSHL

[6] = Partition coefficient in two-phase solvent system; type: physicochemical; conditions: hexane/ethyl acetate/methanol/water 5/5/5/2
Experimental: The partition coefficient of kazinol C was measured in the following manner First, 1 mg of the extract of Example 3 was placed in a 10-ml test tube, and 2 ml of each of the upper layer solution and lower layer solution of a two-phase solution system, which reached equilibrium, was added thereto, and the mixture was shaken intensively for 1 minute. After the two phases have reached equilibrium, 100 μl of each of the upper layer solution and the lower layer solution was taken, dried, dissolved in 1 ml of ethanol, and analyzed by HPLC. The value obtained by dividing the amount of kazinol C in the upper layer solution by the amount of kazinol C in the lower layer solution was determined as partition coefficient.

O=c1cc(CO)occ1O [Control, kojic acid]
Tyrosinase inhibitory effect (%) [1]: 80%

OC[C@H]1O[C@@H](Oc2ccc(O)cc2)[C@H](O)[C@@H](O)[C@@H]1O [Arbutin, arbutin]
Inhibition (%) of tyrosinase activity ([2]; 125 μg/ml): 38.1%
Inhibition (%) of tyrosinase activity ([2]; 250 μg/ml): 56.5%
Inhibition (%) of tyrosinase activity ([2]; 500 μg/ml): 87.7%
IC50 (μg/ml), tyrosinase activity ([2]; mushroom tyrosinase 10 units, 37° C., 10 minutes): 209.6 µg/mL (≈ 770 µM)
Inhibition (%) of melanin production ([3]; 72 hours): 33.7%
Melanin % relative to control ([3]; 72 hours): 66.3 ± 4.7%
inhibition at 100 µg/mL ([3]; Mus musculus, B16, 72 h): 21.2%
% relative to control (MTT absorbance) ([4]; 100 μg/ml, 24 hours): 95.1 ± 4.8%
Toxicity (%) ([4]; 100 μg/ml, 24 hours): 4.9%
Cytotoxicity (in words) ([4]; at a concentration of 100 μg/ml): no cytotoxicity

C=CC(C)(C)c1cc(CCCc2cc(O)c(O)c(CC=C(C)C)c2CC=C(C)C)c(O)cc1O [kazinol C]
Tyrosinase inhibitory effect (in words) [5]: excellent tyrosinase inhibitory effect compared to kojic acid
Partition coefficient (upper layer / lower layer) [6]: 0.997
